Measurements taken from patent EP0336976A1, “PHARMACEUTICAL PREPARATION FOR CURING MULTIPLE SCLEROSIS AND LATERAL A[…]” (VSESOJUZNY KARDIOLOGICHESKY NAUCHNY TSENTR AKADEMII …, priority 1987, dated 1989).
Where a SMILES comes first, the peptide text is derived from it. [ ]: non-standard residue; d: D form.

Legend:
Toxicity (LD50) = conditions: in vivo; species and route not given; read-out: LD₅₀
[1] = test system: Patienten mit zerebrospinaler Form der multiplen Sklerose; assay: Clinical trial in multiple sclerosis patients: neurological status scored in points (Kurtzke scale: neurological deficit and progression/disability scale), on top of basic therapy; format: in vivo, Menschen
Protocol: Das erfindungsgemässe Präparat für die Behandlung der multiplen Sklerose und der myotrophischen Lateralsklerose wurde in einer Klinik an Menschen erprobt.
Bei der multiplen Sklerose erfolgte die Behandlung mit dem angemeldeten Präparat unter Anwendung der Basistherapie, die die Vitamine der B-Gruppe, Glutaminsäure, Nikotinsäure, Zerebrolysin, Midokalm, und Essentiale einschliesst. Das erfindungsgemässe Präparat wurde den Patienten intramuskulär zu je I bis 5 mg des Wirkstoffes, der in I ml einer physiologischen Lösung aufgelöst wird, zweimal pro Tag innerhalb von 5 Tagen eingeführt.
Bei der Behandlung der multiplen Sklerose wurde die Wirkung des erfindungsgemässen Präparates mit der Wirkung von T-Aktivin verglichen, das unter Anwendung der gleichen wie bei der Behandlung mit dem angemeldeten Präparat Basistherapie eingeführt wurde. Das T-Aktivin führte man den Patienten intramuskulär einmal pro Tag zu je I ml I,0%iger Lösung innerhalb von 5 Tagen ein. Nach einer 7-tägigen Unterbrechung führte man das T-Aktivin in der gleichen dosis während 2 Tage ein.
(§1) Bei der Behandlung der multiplen Sklerose mit dem erfindungsgemässen Präparat und mit T-Aktivin verwendete man neben einer klinischen Analyse der neurologischen Symptome auch eine Methode der Registrierung von kurzlatenten erzeugten Hörpotentialen auf die akustische Stimulation. Die Dynamik der neurologischen Symptome bewertete man in Punkten nach der Kurzkschen Skale. Man führt die Analyse der Punkten-Summe nach der Skale des neurologischen Defizits durch sowie nach der Skale der Invalidisierung (sich verschlimmernde Entwicklung) unter Berücksichtigung der sozialen Adaptation des jeweiligen Patienten durch. Bei der Untersuchung der kurzlatenten erzeugten Hörpotentiale erfolgte die Summierung von 3000 Antworten und es wurden 7 Komponenten registriert, die den funktionellen Zustand folgender Pegel eines Höranalysators widerspiegeln: I - Schneke des Hörnervs, II -Kerne des Cochlearkomplexes, III- Nucleus der oberen Olive, IV - Nucleus der lateralen Schleife, V - Kerne der Höcker der Vierhügelplatte, VI - Kerne mittlerer Kniehöcker, VII - Kerne Auditus kortex. Alle Komponenten wurden nach den Werten der Zwischenpeakintervalle und den Relationen der Peakamplituden analysiert. Die Kontrollgruppe für die Untersuchung der kurzlatenten erzeugten Hörpotentiale bildeten I2 praktisch gesunde Personen.
(§2) Die Untersuchung der Patienten erfolgte vor der Verordnung der Präparate, in 5 und in I4 Tagen nach dem Beginn ihrer Verabreichung.
Hervorzuheben ist, dass bei den Patienten, denen das erfindungsgemässe Präparat und das T-Aktivin verordnet wurden, innnerhalb der letzten zwei Monate keine Dynamik im neurologischen Status nachgewiesen wurde. Das gab die Möglichkeit, die Verbesserung des Zustandes als Effekt von der Verordnung der Präparate zu betrachten.
Die Hauptgruppe der Patienten, die das erfindungsgemässe Präparat verabreicht bekamen, bestand aus 24 Personen (6 Männer und I8 Frauen) im alter von 20 bis 49 Jahren mit zerebrospinaler Form der multiplen Sklerose. Die Dauer der Erkrankung betrug von 2 bis 7 Jahren. Das erfindungsgemässe Präparat führe man den Patienten intramuskulär zu je I bis 2 mg zweimal am Tage innerhalb von 5 Tagen ein. Die Gruppe der Patienten, die das T-Aktivin bekam, bestand aus I4 Personen (6 Männer und 8 Frauen) im Alter von 23 bis 47 Jahren mit zerebrospinaler Form der multiplen Sklerose. Die Dauer der Erkrankung betrug von 2 bis 7 Jahren.
Das T-Aktivin führte man den patienten intramuskulär zu je I ml 0,I%iger Lösung einmal pro Tag innerhalb von 5 Tagen ein. […]
Bei der Einlieferung ins Krankenhaus wurden dem Patienten Vitamine BI und B₆, Glutaminsäure, innerhalb eines Monates Zerebrolysin verabreicht, durchgeführt wurden kurze Kuren mit Midokalm und Essentiale. […]

[2] = test system: Leitungsbahnen des Hirnstammes; assay: Recording of short-latency auditory evoked potentials on acoustic stimulation in multiple sclerosis patients; format: in vivo, Menschen; conditions: MS patients
Description: as §1, §2
Die Hauptgruppe der Patienten, die das erfindungsgemässe Präparat verabreicht bekamen, bestand aus 24 Personen (6 Männer und I8 Frauen) im alter von 20 bis 49 Jahren mit zerebrospinaler Form der multiplen Sklerose. Die Dauer der Erkrankung betrug von 2 bis 7 Jahren. Das erfindungsgemässe Präparat führe man den Patienten intramuskulär zu je I bis 2 mg zweimal am Tage innerhalb von 5 Tagen ein. Die Gruppe der Patienten, die das T-Aktivin bekam, bestand aus I4 Personen (6 Männer und 8 Frauen) im Alter von 23 bis 47 Jahren mit zerebrospinaler Form der multiplen Sklerose. Die Dauer der Erkrankung betrug von 2 bis 7 Jahren. […]

[3] = test system: Patienten mit amyotrophischen Lateralsklerose; assay: Clinical trial in amyotrophic lateral sclerosis patients: course of the disease, on top of conventional nonspecific therapy; format: in vivo, Menschen; conditions: ALS
[4] = patients with sekundärer Verschlimmerung, effect mainly am I5. Tag
[5] = patients: Leichter Grad, Am I5. Tag
[6] = patients: Remittierend, a) Verschlimmerung, Am I5. Tag
[7] = of 62 patients, listed as Präparat + Nichtspezifische Therapie
[8] = of 62 patients, pronounced plus moderate improvement

CC(C)C[C@H](NC(=O)[C@H](Cc1ccccc1)NC(=O)CNC(=O)[C@@H](C)NC(=O)[C@@H](N)Cc1ccc(O)cc1)C(=O)N[C@@H](CCCNC(=N)N)C(=O)O [erfindungsgemässe Präparat, Tyr-D-Ala-Gly-Phe-Leu-Arg] (H-Y[dA]GFLR-OH)
LD50 (Toxicity (LD50)): 520 mg/kg
Punkte nach der Skale der sich verschlimmernden Entwicklung ([1]; Beispiel I, Patientin K., 46 years, progredient MS, after 5 days of I mg twice daily, before treatment 6): 4
klinische Verbesserung, Anteil der Patienten ([1]; MS patients, whole group, after the course of treatment): 89%
Verringerung der Summe der Punkte nach der Skale des neurologischen Defizits ([1]; patients with mittlerem Schweregrad, am 6. Tag): 4,3 Punkte
Senkung des Indexes nach der Skale der sich verschlimmernden Entwicklung [1, 4]: 2,4 Punkte
Verringerung der Summe der Punkte nach der Skale des neurologischen Defizits [1, 4]: 6,3 Punkte
Gesamtpunktenzahl nach der Skala des neurologischen Defizits [1, 5]: 8,6±0,9 Punkte
Index nach der Skala der sich verschlimmernden Entwicklung [1, 5]: 2,8±0,5 Punkte
Index nach der Skala der sich verschlimmernden Entwicklung ([1]; patients: Leichter Grad, Vor der Behandlung (baseline)): 3,7±0,4 Punkte
Index nach der Skala der sich verschlimmernden Entwicklung ([1]; patients: Mittlerer Grad, Am 6. Tag): 4,9±0,3 Punkte
Index nach der Skala der sich verschlimmernden Entwicklung ([1]; patients: Mittlerer Grad, Am I5. Tag): 4,4±0,6 Punkte
Index nach der Skala der sich verschlimmernden Entwicklung ([1]; patients: Remittierend, a) Verschlimmerung, Am 6. Tag): 3 Punkte
Gesamtpunktenzahl nach der Skala des neurologischen Defizits [1, 6]: 5 Punkte
Index nach der Skala der sich verschlimmernden Entwicklung [1, 6]: 2 Punkte
Index nach der Skala der sich verschlimmernden Entwicklung ([1]; patients: Remittierend, a) Verschlimmerung, Vor der Behandlung (baseline)): 5 Punkte
Index nach der Skala der sich verschlimmernden Entwicklung ([1]; patients: Remittierend, b) Remission, Am 6. Tag): 3,3±0,5 Punkte
Index nach der Skala der sich verschlimmernden Entwicklung ([1]; patients: Remittierend, b) Remission, Am I5. Tag): 3,4±0,5 Punkte
Index nach der Skala der sich verschlimmernden Entwicklung ([1]; patients: Remittierend, b) Remission, Vor der Behandlung (baseline)): 4,3±0,8 Punkte
Index nach der Skala der sich verschlimmernden Entwicklung ([1]; patients: Remittierend, c) sekundäre Verschlimmerung, Am 6. Tag): 4,8±2,0 Punkte
Index nach der Skala der sich verschlimmernden Entwicklung ([1]; patients: Remittierend, c) sekundäre Verschlimmerung, Am I5. Tag): 3,5±0,4 Punkte
Verringerung des Index nach der Skale der Weiterentwicklung der Krankheit ([1]; single patient in acute state of MS, zum I5. Tag): 3 Punkte
Verringerung der Summe der Punkte nach der Skale des neurologischen Defizits ([1]; whole group, in 5 Tagen nach dem Beginn der Behandlung): 2,9 Punkte
Verringerung der Summe der Punkte nach der Skale des neurologischen Defizits ([1]; whole group, in I4 Tagen nach dem Beginn der Behandlung): 3,8 Punkte
Differenzen der Latenzwerte III Peak-I Peak ([2]; Am 6. Tag): 2,22±0,05
Differenzen der Latenzwerte III Peak-I Peak ([2]; Am I5. Tag): 2,20±0,06
Verhältnis der Amplituden V Peak - I Peak ([2]; Am I5. Tag): 0,88±0,23
Verbesserung Ausgeprägt, number of patients ([3]; of 62 patients): 8
Verbesserung Mässig, number of patients ([3]; of 62 patients): 16
Verbesserung Mässig, share of patients ([3]; of 62 patients): 26%
keine Anzeichen einer sich verschlimmernden Entwicklung (stabiler Zustand oder Verbesserung), share of patients ([3]; of 62 patients): 84%
Sich verschlimmernde Entwicklung, number of patients [3, 7]: 10
Sich verschlimmernde Entwicklung, share of patients [3, 7]: 16%
Verbesserung Ausgeprägt, share of patients [3, 7]: 13%
Verbesserung des Zustandes, number of patients [3, 8]: 24 Personen
Verbesserung des Zustandes, share of patients [3, 8]: 39%
Fehlen der Dynamik, number of patients ([3]; of 62 patients, stable state): 28
Fehlen der Dynamik, share of patients ([3]; of 62 patients, stable state): 45%
keine Anzeichen einer sich verschlimmernden Entwicklung, number of patients ([3]; of 62 patients, stable state or improvement): 52 Personen
sich verschlimmernde Entwicklung seltener im Vergleich zur Kontrollgruppe ([3]; preparation plus conventional therapy vs conventional therapy alone): 4,8 fache
Parese in den Füssen ([3]; Beispiel 3, Patient, two 2-week courses of I mg i.m. twice daily, at admission 2 Punkte): 0 Punkte
Paresegrad in proximalen Abschnitten von Beinen und Armen ([3]; Beispiel 4, Patient E., 4I years, two 2-week courses of 2 mg i.m. twice daily): 0 Punkte
Parese der Extremitäten ([3]; Beispiel 5, Patient M., second stay, two 2-week courses of I mg i.m. twice daily): 0 Punkte
